The results in this text go back to patent publication US20150238487A1, “NOVEL ERGOLINE DERIVATIVES AND USES THEREOF” (MAP Pharmaceuticals, Inc., priority 2012, published 2015).

The IC50 is the concentration that inhibits the measured activity by half. As a reminder, the EC50 is the concentration that produces a half-maximal response. Higher therefore signals a need for much substance.

SMILES strings stand for the structures.

For one assay, the target named is T1, Adrenergic α2A (Homo sapiens, UniProt P08913).
T1 construct: expressed in transfected cells; host or cells: CHO-K1 (membrane extracts)
As to the kind of experiment: GTPγ[35S] assay, Adrenergic α2A. Format: biochemical. Conditions: antagonism, CHO-K1 membranes, read-out: Activity (Antagonism: IC50), Adrenergic a2A. As to the method:
(§1) Receptor […] activity assays were performed using 8′OH-2-CF3-dihydroergotamine (8′OH-2-CF3-DHE). Table 1 summarizes the cell lines (CHO-K1/HEK293 transfected with relevant human receptor) and the assays performed to detect any agonist or antagonist activity.
(§2) GTPγS studies were conducted to monitor agonist activity for 8′OH-2CF3-dihydroergotamine (8′OH-2CF3-DHE) against the receptors indicated in Table 1 above. Reagents used were the following: Assay buffer (20 mM HEPES, pH 7.4; 100 mM NaCl; 10 μg/mL saponin; 30 mM MgCl2); Membranes (recombinant human receptor membrane extracts were thawed on ice and diluted in assay buffer to give 1000 μg/mL ([…]) and kept on ice); GDP (diluted in assay buffer to give 30 μM solution (3 μM final concentration); beads (PVT-WGA (Amersham, RPNQ001), diluted in assay buffer at 25 mg/mL (0.25 mg/10 μL)); GTPγ^35S (Perkin Elmer, NEG030X), diluted in assay buffer to give 0.1 nM (final concentration); and ligand (agonist/antagonist diluted in assay buffer).
(§3) Membranes were mixed with GDP (1:1) and incubated for at least 15 minutes on ice. In parallel GTPγ^35S was mixed with the beads (1:1) just before starting the reaction. […] The plates were then centrifuged for 10 minutes at 2000 rpm and incubated at room temperature for 1 hour and counted for 1 min/well with a Perkin Elmer TopCount reader.

The next assay addresses T2, Serotonin 5-HT1B (Homo sapiens, UniProt P28222).
T2 construct: expressed in transfected cells; host or cells: CHO-K1 (membrane extracts)
As to the kind of experiment: GTPγ[35S] assay, Serotonin 5-HT1B. The format is biochemical. The note with it: agonism, CHO-K1 membranes. As to the method:
as §1, §2, §3

For another assay, the target named is T3, Dopamine D1 (Homo sapiens, UniProt P21728).
T3 construct: expressed in transfected cells; host or cells: CHO-K1
In words: cAMP HTRF assay, Dopamine D1. The format is cell-based. The note with it: CHO-K1, cAMP. As for the experimental part: as §1
(§4) cAMP HTRF (Gs) studies were conducted to monitor activity for 8′OH-2CF3-dihydroergotamine (8′OH-2CF3-DHE) against the receptors indicated in Table 1 above. Cells expressing the human recombinant receptor of interest were grown in media without antibiotic and detached by gentle flushing with PBS-EDTA (5 mM EDTA), recovered by centrifugation and resuspended in assay buffer (KRH: 5 mM KCl, 1.25 mM MgSO4, 124 mM NaCl, 25 mM HEPES, 13.3 mM glucose, 1.25 mM KH2PO4, 1.45 mM CaCl2, 0.5 g/L BSA). Dose response curves were performed in parallel with the reference compounds. For agonist tests (96-well plates), 12 μL of cells was mixed with 12 μL of the test compound at increasing concentrations and then incubated for 30 minutes at room temperature. Lysis buffer was added and after a 1 hour incubation, cAMP concentrations was determined according to the manufacturer specification with the HTRF kit. […] Lysis buffer was added and after a 1 hour incubation, cAMP concentrations were determined according to the manufacturer specification, with the HTRF kit.
In general terms: In TR-FRET formats the signal depends on donor and acceptor labels being close together.

The test system of another assay is Calcitonin (AM1/AM2). As to the kind of experiment: cAMP HTRF assay, Calcitonin AM1/AM2. Format: cell-based, human. The note with it: CHO-K1, cAMP. As for the experimental part: as §1, §4
Another assay addresses T4, Adrenergic α1B (Homo sapiens, UniProt P35368).
T4 construct: expressed in transfected cells; host or cells: CHO-K1 mAeq
In words: Aequorin assay, Adrenergic α1B. Conditions: antagonism, CHO-K1 mAeq, read-out: Activity (Antagonism: IC50), Adrenergic a1B. Format: cell-based. As to the method: as §1
(§5) Aequorin assays were conducted to monitor activity for 8′OH-2CF3-dihydroergotamine (8′OH-2CF3-DHE) against the receptors indicated in Table 1 above (except for mGlu3 and mGlu5). CHO-K1 cells coexpressing mitochondrial apoaequorin and the recombinant human receptor of interest were grown to mid-log phase in culture media without antibiotics and then detached with PBS-EDTA, centrifuged and resuspended in assay buffer (DMEM/HAM's F12 with HEPES, without phenol red+0.1% BSA, protease free) at a concentration of 1×10^6 cell/mL. […]
(§6) 50 μL of the cell suspension was mixed with 50 μL of test or reference agonist in a 96-well plate. The resulting emission of light was recorded using Hamamatsu Functional Drug Screening System 6000 (FDSS 6000) luminometer. […]
(§7) To standardize the emission of recorded light (and determine of the “100% signal”) across plates and across different experiments, some wells contained 100 μM digitonin or a saturating concentration of ATP (20 μM).

Assay [1] deals with Purinergic (P2X1/P2X2/P2X3/P2X4/P2X7). As to the kind of experiment: Purinergic receptor QPatch patch clamp study. Conditions: HEK293, QPatch HT, agonist and antagonist modes at 10 and 30 μM. Format: cell-based, human. As to the method:
Purinergic receptor studies were conducted to monitor activity for 8′OH-2CF3-dihydroergotamine (8′OH-2CF3-DHE) against the P2X1, P2X2, P2X3, P2X4 and P2X7 receptors. Human recombinant purinergic receptor expressing HEK293 cells were used and receptor activity was evaluated at room temperature using QPatch HT® (Sophion Bioscience A/S, Denmark) automatic parallel patch clamp system. 8′OH-2CF3-DHE was evaluated in both agonist and antagonist modes at 10 and 30 μM. Each concentration was tested in triplicates.
On the technique in general: In patch-clamp work, channel activity is measured electrically.

In a further assay the target is T5, Calcitonin (CGRP) (Homo sapiens, UniProt O60894+Q16602).
T5 construct: expressed in transfected cells; host or cells: CHO-AEQ (CHO-K1 coexpressing mitochondrial apoaequorin)
As to the kind of experiment: Aequorin assay, CGRP receptor. Format: cell-based. Conditions: CHO-AEQ. As to the method:
as §1, §5, §6, §7

A further assay deals with T6, Adrenergic α2C (Homo sapiens, UniProt P18825).
T6 construct: expressed in transfected cells; host or cells: CHO-K1 (membrane extracts)
In words: GTPγ[35S] assay, Adrenergic α2C. The format is biochemical. The note with it: antagonism, CHO-K1 membranes, read-out: Activity (Antagonism: IC50), Adrenergic a2C. As for the experimental part:
as §1, §2, §3

T5 sequence (Q16602 23-461): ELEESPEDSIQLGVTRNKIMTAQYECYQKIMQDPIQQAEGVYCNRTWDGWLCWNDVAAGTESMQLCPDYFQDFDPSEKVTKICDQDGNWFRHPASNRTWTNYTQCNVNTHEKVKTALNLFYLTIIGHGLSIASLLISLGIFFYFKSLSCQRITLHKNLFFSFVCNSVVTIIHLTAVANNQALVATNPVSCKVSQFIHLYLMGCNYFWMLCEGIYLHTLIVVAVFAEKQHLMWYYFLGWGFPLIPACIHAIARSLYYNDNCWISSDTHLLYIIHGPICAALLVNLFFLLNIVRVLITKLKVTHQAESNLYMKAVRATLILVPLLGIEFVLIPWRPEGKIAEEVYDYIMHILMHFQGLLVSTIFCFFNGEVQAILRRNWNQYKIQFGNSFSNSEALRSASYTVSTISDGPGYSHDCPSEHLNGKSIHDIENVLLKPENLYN
T5 sequence (O60894 27-148 partner): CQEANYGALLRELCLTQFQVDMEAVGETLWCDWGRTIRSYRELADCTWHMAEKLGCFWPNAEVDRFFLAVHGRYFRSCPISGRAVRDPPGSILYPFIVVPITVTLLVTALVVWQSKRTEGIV
T4 sequence (P35368 whole entry): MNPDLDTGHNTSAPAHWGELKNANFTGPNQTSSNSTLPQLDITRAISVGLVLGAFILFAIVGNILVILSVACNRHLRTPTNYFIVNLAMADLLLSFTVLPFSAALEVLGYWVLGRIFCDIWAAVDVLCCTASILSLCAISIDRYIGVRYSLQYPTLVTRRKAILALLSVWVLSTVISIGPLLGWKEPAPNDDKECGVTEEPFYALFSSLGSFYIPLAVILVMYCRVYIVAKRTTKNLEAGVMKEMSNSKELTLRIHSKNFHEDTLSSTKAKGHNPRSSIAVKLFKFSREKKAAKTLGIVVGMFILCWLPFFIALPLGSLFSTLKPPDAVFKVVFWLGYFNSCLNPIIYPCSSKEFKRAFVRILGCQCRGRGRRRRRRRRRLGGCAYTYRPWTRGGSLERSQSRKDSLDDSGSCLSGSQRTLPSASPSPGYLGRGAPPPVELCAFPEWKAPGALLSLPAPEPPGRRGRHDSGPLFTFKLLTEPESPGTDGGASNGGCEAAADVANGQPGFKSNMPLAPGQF
T1 sequence (P08913 whole entry): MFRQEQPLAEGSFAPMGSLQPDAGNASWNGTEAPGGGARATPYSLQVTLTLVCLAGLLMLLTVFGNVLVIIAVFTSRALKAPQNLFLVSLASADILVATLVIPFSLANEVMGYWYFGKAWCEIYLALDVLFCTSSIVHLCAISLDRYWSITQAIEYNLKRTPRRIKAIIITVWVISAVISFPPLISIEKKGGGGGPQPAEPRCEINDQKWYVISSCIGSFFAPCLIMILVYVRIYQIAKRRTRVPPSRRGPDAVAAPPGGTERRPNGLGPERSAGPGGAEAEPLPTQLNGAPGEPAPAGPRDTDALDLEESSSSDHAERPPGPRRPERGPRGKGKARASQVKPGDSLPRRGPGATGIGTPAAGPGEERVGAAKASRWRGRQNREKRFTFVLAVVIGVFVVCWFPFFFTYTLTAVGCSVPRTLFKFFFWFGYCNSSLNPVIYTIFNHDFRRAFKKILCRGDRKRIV
T6 sequence (P18825 whole entry): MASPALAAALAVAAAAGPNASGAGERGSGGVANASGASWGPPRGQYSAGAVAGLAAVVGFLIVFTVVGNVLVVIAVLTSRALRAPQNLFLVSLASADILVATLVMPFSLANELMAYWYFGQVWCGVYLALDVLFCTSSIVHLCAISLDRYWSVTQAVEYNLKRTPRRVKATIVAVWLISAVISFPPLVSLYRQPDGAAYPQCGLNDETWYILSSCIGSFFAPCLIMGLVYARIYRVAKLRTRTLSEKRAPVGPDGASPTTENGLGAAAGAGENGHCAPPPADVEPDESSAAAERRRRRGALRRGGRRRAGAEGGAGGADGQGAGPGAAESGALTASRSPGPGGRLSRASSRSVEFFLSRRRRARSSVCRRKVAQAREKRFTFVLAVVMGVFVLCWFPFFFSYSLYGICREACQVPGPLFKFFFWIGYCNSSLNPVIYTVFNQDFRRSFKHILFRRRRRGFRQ
T2 sequence (P28222 whole entry): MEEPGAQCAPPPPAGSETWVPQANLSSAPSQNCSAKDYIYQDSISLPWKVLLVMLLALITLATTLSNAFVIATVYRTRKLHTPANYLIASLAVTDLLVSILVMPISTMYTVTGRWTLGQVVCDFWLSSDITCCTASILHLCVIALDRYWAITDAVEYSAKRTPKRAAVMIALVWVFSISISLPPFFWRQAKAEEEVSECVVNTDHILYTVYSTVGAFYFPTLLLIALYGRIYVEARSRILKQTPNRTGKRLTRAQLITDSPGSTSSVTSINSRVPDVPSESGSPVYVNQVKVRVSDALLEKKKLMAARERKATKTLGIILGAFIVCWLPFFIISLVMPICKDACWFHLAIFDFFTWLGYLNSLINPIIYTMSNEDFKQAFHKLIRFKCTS
T3 sequence (P21728 whole entry): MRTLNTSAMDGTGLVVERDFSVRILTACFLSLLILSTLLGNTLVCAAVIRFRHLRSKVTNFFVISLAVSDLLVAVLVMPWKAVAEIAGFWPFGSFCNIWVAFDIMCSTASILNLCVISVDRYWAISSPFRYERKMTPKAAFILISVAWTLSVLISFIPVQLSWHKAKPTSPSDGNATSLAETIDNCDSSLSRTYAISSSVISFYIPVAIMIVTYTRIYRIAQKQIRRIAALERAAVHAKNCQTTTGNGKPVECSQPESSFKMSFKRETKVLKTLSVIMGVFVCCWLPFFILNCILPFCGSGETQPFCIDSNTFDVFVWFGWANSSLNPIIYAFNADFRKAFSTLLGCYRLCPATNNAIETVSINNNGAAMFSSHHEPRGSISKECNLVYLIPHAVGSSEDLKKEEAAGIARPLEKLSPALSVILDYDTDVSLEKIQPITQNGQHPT

For the molecule `CN1C[C@H](C(=O)N[C@]2(C)O[C@@]3(O)[C@@H]4CC[C@@H](O)N4C(=O)[C@H](Cc4ccccc4)N3C2=O)C[C@@H]2c3cccc4[nH]c(C(F)(F)F)c(c34)C[C@H]21` [8′OH-2-CF3-DHE, 8′-Hydroxy-2-CF3-dihydroergotamine], the IC50 on Adrenergic α2A is 149 nM; on Adrenergic α1B, 10.9 nM; on Adrenergic α2C it was > 10000 nM. Further, the EC50 at Serotonin 5-HT1B was determined as 405 nM. Also, on Dopamine D1, the “Activity (Agonism: EC50; Antagonism: IC50), D1” value is reported as “Inactive”. For the same molecule, the “Activity (Agonism: EC50; Antagonism: IC50), Calcitonin (AM1/AM2)” value in the assay on Calcitonin (AM1/AM2) was “Inactive”. The “Activity (Agonism: EC50; Antagonism: IC50), Purinergic (P2X1/P2X2/P2X3/P2X4/P2X7)” value in assay [1] is “Inactive”. For the same molecule, at Calcitonin (CGRP), the “Activity (Agonism: EC50; Antagonism: IC50), Calcitonin (CGRP)” value is “Inactive”.
